Source: ChEMBL document CHEMBL1201862, “PubChem BioAssay data set” (2004)
Activity calls are given as the source filed them.

Assays:
[1] = biological target: Peroxisome proliferator-activated receptor gamma/Nuclear receptor coactivator 1 (Homo sapiens, UniProt P37231); experiment: (§1) TR-FRET dose response biochemical High Throughput Screening assay for agonists of the steroid receptor coactivator 1 (SRC-1) recruitment by the peroxisome proliferator-activated receptor gamma (PPAR gamma): non-selective agonists. [Related pubchem assays (depositor defined):AID1300, AID1808, AID504735, AID631]; type: protein assay
[2] = biological target: Peroxisome proliferator-activated receptor gamma/Nuclear receptor coactivator 3 (Homo sapiens, UniProt P37231); experiment: as §1, with “3 (SRC-3)” for “1 (SRC-1)”, “assays: 1301 (Confirmation screen.), 1048 (Primary screen.)]” for “assays (depositor defined):AID1300, AID1808, AID504735, AID631]”; type: functional
[3] = biological target: Peroxisome proliferator-activated receptor gamma/Nuclear receptor coactivator 2 (Homo sapiens, UniProt P37231); experiment: TR-FRET dose response biochemical High Throughput Screening assay for agonists of the steroid receptor coactivator 2 (SRC-2) recruitment by the peroxisome proliferator-activated receptor gamma (PPAR gamma): non-selective agonists. [Related pubchem assays: 1297, 1032 ]; type: functional
Sequence of Peroxisome proliferator-activated receptor gamma/Nuclear receptor coactivator 2 (P37231 whole entry): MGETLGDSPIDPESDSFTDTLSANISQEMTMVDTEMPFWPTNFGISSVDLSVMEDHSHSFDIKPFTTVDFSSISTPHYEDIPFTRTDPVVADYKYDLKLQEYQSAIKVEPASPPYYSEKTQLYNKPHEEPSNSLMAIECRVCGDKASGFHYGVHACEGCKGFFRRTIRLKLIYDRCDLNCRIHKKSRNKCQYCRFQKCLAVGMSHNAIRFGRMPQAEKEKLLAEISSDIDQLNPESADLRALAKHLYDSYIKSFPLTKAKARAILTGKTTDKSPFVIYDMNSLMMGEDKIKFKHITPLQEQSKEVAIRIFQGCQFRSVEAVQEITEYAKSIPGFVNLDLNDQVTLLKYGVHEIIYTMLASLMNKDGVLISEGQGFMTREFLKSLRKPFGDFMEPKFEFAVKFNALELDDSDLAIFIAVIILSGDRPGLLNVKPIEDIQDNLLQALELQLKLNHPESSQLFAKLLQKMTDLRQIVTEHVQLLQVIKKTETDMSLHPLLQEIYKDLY
Sequence of Peroxisome proliferator-activated receptor gamma/Nuclear receptor coactivator 2 (Q15596 whole entry, further chain): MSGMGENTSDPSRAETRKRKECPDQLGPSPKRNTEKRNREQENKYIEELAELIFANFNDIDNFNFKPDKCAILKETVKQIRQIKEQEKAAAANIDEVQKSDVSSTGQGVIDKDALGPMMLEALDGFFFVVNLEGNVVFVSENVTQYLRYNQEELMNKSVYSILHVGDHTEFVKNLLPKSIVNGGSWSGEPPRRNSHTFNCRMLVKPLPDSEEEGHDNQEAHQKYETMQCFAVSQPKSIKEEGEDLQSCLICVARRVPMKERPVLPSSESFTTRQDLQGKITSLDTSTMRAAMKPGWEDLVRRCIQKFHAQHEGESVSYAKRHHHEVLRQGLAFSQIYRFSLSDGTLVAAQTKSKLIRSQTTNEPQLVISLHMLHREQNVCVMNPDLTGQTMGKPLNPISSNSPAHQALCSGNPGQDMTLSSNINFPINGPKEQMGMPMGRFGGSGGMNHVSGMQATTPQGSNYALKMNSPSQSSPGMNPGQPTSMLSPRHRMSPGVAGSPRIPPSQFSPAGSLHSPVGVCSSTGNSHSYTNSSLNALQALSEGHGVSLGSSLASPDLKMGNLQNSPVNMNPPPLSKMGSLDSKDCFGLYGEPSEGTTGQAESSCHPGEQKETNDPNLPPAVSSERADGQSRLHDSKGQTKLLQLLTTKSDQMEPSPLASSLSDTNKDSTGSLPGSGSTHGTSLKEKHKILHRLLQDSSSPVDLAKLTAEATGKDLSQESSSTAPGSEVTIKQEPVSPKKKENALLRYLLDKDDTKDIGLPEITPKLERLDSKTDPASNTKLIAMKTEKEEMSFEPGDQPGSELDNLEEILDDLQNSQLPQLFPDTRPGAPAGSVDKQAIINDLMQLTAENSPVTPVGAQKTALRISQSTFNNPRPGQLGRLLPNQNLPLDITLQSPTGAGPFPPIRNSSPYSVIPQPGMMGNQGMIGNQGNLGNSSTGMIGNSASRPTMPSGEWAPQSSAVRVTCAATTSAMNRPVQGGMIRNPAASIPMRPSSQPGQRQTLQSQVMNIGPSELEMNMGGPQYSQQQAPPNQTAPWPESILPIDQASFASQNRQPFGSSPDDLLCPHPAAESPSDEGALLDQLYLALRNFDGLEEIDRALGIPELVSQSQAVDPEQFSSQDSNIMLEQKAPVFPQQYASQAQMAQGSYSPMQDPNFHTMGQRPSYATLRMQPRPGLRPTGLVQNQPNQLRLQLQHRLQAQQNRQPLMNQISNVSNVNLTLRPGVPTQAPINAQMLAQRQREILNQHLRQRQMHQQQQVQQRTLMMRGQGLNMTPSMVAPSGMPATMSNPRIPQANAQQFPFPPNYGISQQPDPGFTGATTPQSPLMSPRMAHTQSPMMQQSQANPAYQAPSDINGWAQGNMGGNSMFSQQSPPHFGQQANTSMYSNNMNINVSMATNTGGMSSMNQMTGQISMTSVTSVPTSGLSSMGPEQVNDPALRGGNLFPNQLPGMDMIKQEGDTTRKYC

[4] = biological target: Mitogen-activated protein kinase 10 (Homo sapiens, UniProt P53779); experiment: Dose response biochemical screening assay for inhibitors of c-Jun N-Terminal Kinase 3 (JNK3). [Related pubchem assays: 746 ]
Sequence of Mitogen-activated protein kinase 10 (P53779 whole entry): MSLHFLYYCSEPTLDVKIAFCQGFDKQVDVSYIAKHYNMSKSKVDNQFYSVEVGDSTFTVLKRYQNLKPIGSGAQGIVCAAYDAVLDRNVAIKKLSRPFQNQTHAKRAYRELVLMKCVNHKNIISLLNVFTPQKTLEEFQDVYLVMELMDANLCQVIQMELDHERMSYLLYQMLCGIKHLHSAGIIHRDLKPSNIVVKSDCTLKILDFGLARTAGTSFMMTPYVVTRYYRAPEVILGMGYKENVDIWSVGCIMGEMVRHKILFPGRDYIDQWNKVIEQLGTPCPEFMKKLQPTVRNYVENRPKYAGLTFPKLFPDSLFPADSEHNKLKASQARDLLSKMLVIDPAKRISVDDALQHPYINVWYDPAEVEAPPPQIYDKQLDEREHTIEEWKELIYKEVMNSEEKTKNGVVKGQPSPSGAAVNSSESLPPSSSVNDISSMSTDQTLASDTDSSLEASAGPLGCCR

[5] = biological target: G-protein coupled receptor 55 (Homo sapiens, UniProt Q9Y2T6); experiment: GPR55 antagonists blocking LPI-driven arrestin recruitment, primary screen, imaging, U2OS, beta-arrestin-GFP, LPI agonist (AID 2013); type: functional;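 also: antagonist potency measured as reduced agonist-driven arrestin aggregation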
Sequence of G-protein coupled receptor 55 (Q9Y2T6 whole entry): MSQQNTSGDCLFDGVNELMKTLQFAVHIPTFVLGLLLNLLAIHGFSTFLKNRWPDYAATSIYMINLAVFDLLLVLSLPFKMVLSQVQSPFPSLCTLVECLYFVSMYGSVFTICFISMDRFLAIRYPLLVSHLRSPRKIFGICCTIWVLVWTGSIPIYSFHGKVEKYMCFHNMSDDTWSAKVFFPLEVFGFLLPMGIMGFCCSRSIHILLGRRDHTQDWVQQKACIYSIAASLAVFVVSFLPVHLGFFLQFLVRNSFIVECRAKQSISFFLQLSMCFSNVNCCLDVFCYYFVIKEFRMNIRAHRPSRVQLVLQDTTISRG

[6] = biological target: Lysine-specific demethylase 4C (Homo sapiens, UniProt Q9H3R0); experiment: GASC-1 (JMJD2C) histone demethylase inhibitors, dose response, biochemical, DELFIA europium, cherry-picked samples (AID 488835); type: functional
Sequence of Lysine-specific demethylase 4C (Q9H3R0 whole entry): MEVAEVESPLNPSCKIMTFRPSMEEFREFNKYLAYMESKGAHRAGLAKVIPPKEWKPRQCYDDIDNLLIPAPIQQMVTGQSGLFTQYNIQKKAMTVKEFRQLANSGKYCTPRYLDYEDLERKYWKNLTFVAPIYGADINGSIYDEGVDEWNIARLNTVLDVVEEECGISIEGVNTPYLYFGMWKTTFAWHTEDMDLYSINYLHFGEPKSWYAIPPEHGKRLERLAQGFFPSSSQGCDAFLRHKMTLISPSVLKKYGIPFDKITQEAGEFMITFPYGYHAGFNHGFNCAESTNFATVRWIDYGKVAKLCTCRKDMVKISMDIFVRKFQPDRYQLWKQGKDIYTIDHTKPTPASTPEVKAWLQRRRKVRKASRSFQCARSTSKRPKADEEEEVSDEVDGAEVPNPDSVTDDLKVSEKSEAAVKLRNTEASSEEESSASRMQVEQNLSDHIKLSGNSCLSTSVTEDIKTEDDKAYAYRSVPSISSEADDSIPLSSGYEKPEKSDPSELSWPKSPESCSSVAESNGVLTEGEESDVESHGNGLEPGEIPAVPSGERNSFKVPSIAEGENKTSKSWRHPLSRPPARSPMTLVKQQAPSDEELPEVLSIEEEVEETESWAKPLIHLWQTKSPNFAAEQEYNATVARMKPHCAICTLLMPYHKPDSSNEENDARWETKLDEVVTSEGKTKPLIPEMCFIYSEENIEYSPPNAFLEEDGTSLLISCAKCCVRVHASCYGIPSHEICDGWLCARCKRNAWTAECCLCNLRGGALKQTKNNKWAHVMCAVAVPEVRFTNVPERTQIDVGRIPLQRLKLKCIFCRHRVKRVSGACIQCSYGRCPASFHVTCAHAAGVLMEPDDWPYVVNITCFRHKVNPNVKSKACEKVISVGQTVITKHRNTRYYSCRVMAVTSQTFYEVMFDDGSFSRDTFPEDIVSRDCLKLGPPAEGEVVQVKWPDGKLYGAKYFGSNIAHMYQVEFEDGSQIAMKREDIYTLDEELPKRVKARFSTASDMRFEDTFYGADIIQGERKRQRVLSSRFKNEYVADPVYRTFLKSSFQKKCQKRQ

[7] = biological target: T1, Microphthalmia-associated transcription factor (Homo sapiens, UniProt O75030); experiment: TRPM1 promoter luciferase signal decrease, dose response, MITF inhibitor project, cell-based, SK-MEL-5, cherry-picked, set 3 (AID 493073); type: functional
T1 sequence (O75030 whole entry): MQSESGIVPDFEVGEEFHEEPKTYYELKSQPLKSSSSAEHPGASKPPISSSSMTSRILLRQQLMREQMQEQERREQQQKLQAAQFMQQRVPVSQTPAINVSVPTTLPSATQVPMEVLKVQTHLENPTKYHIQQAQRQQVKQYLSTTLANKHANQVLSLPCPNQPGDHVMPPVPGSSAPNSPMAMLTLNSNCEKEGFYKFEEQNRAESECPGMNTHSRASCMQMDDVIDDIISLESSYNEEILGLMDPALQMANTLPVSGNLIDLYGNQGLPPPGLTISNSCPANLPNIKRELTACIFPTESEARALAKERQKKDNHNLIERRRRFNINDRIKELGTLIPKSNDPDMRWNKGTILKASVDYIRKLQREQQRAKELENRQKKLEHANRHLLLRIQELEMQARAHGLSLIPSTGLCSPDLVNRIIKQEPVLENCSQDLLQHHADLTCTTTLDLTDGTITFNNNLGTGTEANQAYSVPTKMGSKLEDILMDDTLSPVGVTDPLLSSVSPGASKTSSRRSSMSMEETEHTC

[8] = biological target: Hepatocyte nuclear factor 4-alpha (Homo sapiens, UniProt P41235); type: functional, cell-based;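 also: biochemical luminescence-based dose-response counterscreen measuring inhibition of HNF4 dimerization, run alongside a screen for blockers of ABHD5–perilipin-5 interaction; split luciferase complementation of HNF4 fusion proteins in cell lysate measuring dimerization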
Sequence of Hepatocyte nuclear factor 4-alpha (P41235 whole entry, the tested form may be a part): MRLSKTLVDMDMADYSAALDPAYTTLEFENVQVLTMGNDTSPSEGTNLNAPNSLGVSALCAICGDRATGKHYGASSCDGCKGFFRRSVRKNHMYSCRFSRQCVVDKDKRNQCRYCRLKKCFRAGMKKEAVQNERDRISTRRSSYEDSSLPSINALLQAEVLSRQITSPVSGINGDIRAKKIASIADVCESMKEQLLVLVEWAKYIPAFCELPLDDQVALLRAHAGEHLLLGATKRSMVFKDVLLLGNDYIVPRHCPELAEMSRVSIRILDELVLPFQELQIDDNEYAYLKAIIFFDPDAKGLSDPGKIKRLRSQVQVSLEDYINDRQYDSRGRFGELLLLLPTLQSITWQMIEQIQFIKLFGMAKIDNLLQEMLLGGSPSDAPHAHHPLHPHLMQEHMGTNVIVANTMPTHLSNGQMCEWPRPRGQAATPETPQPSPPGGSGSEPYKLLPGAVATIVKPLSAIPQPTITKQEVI

[9] = THP-1 cell cytotoxicity, dose response, cytotoxicity control for Vif-APOBEC3G degradation inhibitor project, THP-1 cells (AID 1117359); type: functional; settings: Human immunodeficiency virus 1, THP-1
[10] = biological target: Voltage-dependent T-type calcium channel subunit alpha-1H (Homo sapiens, UniProt O95180); type: functional;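 also: channel activity triggered by adding a high calcium stimulation buffer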
CAAX prenyl protease 2 [11] = biological target: T2, CAAX prenyl protease 2 (Saccharomyces cerevisiae S288c, UniProt Q03530); type: biochemical
T2 sequence (Q03530 whole entry): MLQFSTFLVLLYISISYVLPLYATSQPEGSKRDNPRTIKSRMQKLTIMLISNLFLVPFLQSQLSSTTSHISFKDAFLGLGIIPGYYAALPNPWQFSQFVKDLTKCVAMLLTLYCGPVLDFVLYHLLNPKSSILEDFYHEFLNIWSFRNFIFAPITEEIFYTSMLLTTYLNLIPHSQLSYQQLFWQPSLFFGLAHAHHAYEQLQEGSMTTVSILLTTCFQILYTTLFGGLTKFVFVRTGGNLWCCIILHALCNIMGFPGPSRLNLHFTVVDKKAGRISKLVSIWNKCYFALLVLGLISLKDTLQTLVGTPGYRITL

[12] = mammalian cell cytotoxicity, dose response, cytotoxicity control, plate reader, cherry-pick samples (AID 504397); type: functional, cell-based
CAAX prenyl protease 2 [13] = biological target: T3, CAAX prenyl protease 2 (Homo sapiens, UniProt Q9Y256); experiment: human Rce1 protease inhibitors, dose response, biochemical, yeast membranes, quenched-peptide fluorescence, cherry-pick (AID 588849)
T3 sequence (Q9Y256 whole entry): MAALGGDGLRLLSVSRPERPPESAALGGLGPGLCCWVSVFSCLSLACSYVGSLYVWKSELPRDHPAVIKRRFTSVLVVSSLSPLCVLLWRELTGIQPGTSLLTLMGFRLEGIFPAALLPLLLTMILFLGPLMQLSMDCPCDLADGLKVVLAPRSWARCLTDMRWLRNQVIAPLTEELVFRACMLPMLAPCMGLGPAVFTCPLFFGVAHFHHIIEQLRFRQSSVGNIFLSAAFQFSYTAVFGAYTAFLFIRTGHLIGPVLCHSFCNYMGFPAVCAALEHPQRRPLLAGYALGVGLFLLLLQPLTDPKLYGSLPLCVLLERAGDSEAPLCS

Albumin = Albumin (Bos taurus, UniProt P02769); experiment: Counterscreen for inhibitors of T-cell receptor (TCR)-CD3 interaction: Fluorescence-based biochemical high throughput dose response assay to identify inhibitors of T-cell receptor (TCR)-CD3 interaction using a TAMRA-labeled BSA probe.; type: functional
Sequence of Albumin (P02769 whole entry): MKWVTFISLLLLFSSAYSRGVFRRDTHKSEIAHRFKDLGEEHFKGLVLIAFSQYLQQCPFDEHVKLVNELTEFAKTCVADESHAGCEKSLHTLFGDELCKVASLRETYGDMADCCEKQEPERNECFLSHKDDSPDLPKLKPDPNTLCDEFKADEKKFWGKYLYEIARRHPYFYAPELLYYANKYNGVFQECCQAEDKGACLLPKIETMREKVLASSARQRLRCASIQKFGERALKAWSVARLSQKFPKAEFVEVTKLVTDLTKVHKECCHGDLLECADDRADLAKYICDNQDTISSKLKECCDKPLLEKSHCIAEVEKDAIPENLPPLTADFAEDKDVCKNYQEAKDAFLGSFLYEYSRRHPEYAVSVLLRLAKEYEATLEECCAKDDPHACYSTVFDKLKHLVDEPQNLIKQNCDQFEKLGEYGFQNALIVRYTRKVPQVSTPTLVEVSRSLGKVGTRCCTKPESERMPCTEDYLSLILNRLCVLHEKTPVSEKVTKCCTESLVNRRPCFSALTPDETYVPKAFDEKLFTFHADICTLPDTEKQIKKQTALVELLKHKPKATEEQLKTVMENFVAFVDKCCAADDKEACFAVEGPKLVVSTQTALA

With `CCOC(=O)CCC(NC(=O)c1ccc(NCN2C(=O)c3ccccc3C2=O)cc1)C(=O)OCC` (stereo unspecified) the EC50 [1] was > 79.4 µM (inactive), the EC50 [2] was > 79.4 µM (not active) and the EC50 [3] was > 79.4 µM (not active). The IC50 [4] was 13.1 µM (not active).

In the case of `CCOC(=O)c1c(-c2ccccc2)oc2ccc(O)c(CN3CCN(C)CC3)c12`, the IC50 [5] is reported as 6.85 µM (active).

In the case of `O=C1NC(=O)N(Cc2ccc(F)cc2)C(=O)/C1=C\C=C\c1ccco1`, the AC50 [6] is reported as 7.02 µM (active), the AC50 [7] is reported as 6.63 µM (active) and the IC50 [8] is reported as 1.87 µM (active). For the same compound, the CC50 [9] was 28.9 µM (active).

With `O=C(Nc1ccc(S(=O)(=O)Nc2ccccc2)cc1)C1COc2ccccc2O1` (stereo unspecified) the EC50 [10] was 3.37 µM (active), the AC50 (CAAX prenyl protease 2 [11]) was 4.26 µM (active) and the AC50 [12] was 120 µM (active). The AC50 (CAAX prenyl protease 2 [13]) was 65.5 µM (active).

In the case of `O=C(NNC(=O)C1CCN(S(=O)(=O)c2ccccc2)CC1)c1ccccc1O`, the AC50 [6] is reported as 6.67 µM (active) and the IC50 (Albumin) is reported as > 94.1 µM (inactive).

For `COc1cc(C2c3sc(=O)[nH]c3SC3C4CCC(C4)C23)ccc1O` (stereo unspecified), the IC50 [5] was 0.672 µM (active).
